Experimental data published in publication PMC7583830 (Molecules, 2020).
Entries after “also recorded” stand apart in the source; their conditions may differ. Where a SMILES comes first, the peptide text is derived from it. Where no end group is shown, it is not given here. [ ]: non-standard residue; d: D form. The star is where a group is joined. DOTA = O=C(O)CN1CCN(CC(=O)O)CCN(CC(=O)*)CCN(CC(=O)O)CC1; 1Nal = N[C@@H](Cc1cccc2ccccc12)C(=O)O; NMeNle = CCCC[C@H](NC)C(=O)O

What was measured:
[1] = blood of BALB/c mice injected with [^177Lu]Lu-1; conditions: female BALB/c mice, up to 1 h p.i.
[2] = soluble phase extracted from kidney homogenate of BALB/c mice injected with [^177Lu]Lu-1; conditions: female BALB/c mice, up to 1 h p.i.
[3] = fresh human serum; conditions: 37 °C, up to 24 h
[4] = urine of BALB/c mice injected with [^177Lu]Lu-1; conditions: female BALB/c mice, up to 1 h p.i.
[5] = soluble phase extracted from liver homogenate of BALB/c mice injected with [^177Lu]Lu-1; conditions: female BALB/c mice, up to 1 h p.i.
[6] = tested on: A431-CCK2R xenografts; conditions: mouse, in vivo; cited from earlier work
[7] = design: method as in doi:10.2174/1874471010902040304; conditions: kidney homogenate; labeled with indium-111; cited from earlier work
[8] = tested on: neprylisin-1 and neprylisin-2; assay: Incubation in vitro with neprylisin-1 and neprylisin-2; conditions: cited from earlier work
[9] = blood of patients injected with ^111In-labeled DOTA-MG11; conditions: up to 10 min after injection; cited from earlier work
[10] = Metabolic stability in vivo and radiometabolites (radio-HPLC of blood, urine, liver, kidney); design: species or system BALB/c mice
Description: Metabolic biodistribution studies were performed in accordance with the ethical standards of the institution and approved by the Austrian Ministry of Science (BMWFW-66.011/0072-V/3b/2019). These studies were carried out in 5- to 7-week-old female BALB/c mice (n = 3) injected with [^177Lu]Lu-1 via a lateral tail vein. To allow monitoring of the metabolites by radio-HPLC, mice were injected with 30 MBq corresponding to 0.8 nmol total peptide. The mice were euthanized by cervical dislocation after different time points of 10 min, 30 min and 1 h p.i. and the urine and a venous blood sample were collected at the time of sacrifice. Liver and kidneys were dissected and homogenized in 20 mM HEPES buffer pH 7.3 at a ratio of 1:1 (v/v) with an Ultra-Turrax T8 homogenizer (IKA-Werke, Staufen, Germany) for 1 min at RT. Before radio-HPLC analysis, the samples (except urine) were treated with ACN at a ratio of 1:1 (v/v) to precipitate proteins, centrifuged at 2000× g for 2 min and diluted with water at a ratio of 1:1 (v/v). For HPLC analysis of the samples, the analytical HPLC system described above with a flow rate of 1 mL/min was used together with the following optimized water/ACN/0.1% TFA gradient to allow a better separation of [^177Lu]Lu-1 and the different radiometabolites: 0–7 min 1–7% ACN, 7–8 min 7–10% ACN, 8–18 min 10–18% ACN, 18–20 min 18–32% ACN, 20–27 min 32% ACN, 27–37 min […], 37–40 min 80% ACN, 40–40.1 min 80–1% ACN, 40.1–45 min 1% ACN. Urine was measured with the low-sensitivity loop of the radiodetector. The remaining samples were analyzed with the high-sensitivity loop due to the lower radioactivity present in blood, liver and kidney homogenate. To quantify the percentage of intact [^177Lu]Lu-1 and [^177Lu]Lu-M1 showing some overlap in the radiochromatogram when using the high-sensitivity loop of the radiodetector, the two radiopeptides were co-injected at different known ratios to enable a more accurate separation and integration of the two peaks (see supporting Figure S4). Mice from the metabolic biodistribution studies were subjected to a further dissection of all remaining tissues (blood, lung, heart, femur, spleen, muscle, intestine, pancreas and stomach). All organs, also including liver and kidneys, were weighed, and their radioactivity was measured in the gamma counter together with a standard and the residual body. To quantify the uptake of radioactivity in liver and kidneys, a part of liver and kidney homogenate was measured in the gamma counter to extrapolate the radioactivity for the whole organ.

[11] = Distribution coefficient (logD) in octanol/PBS; type: physicochemical; conditions: octanol/PBS pH 7.4; read-out: logD
Description: The mixture was vigorously vortexed at room temperature over a period of 15 min using a small shaker (MS3 Basic, IKA, Staufen, Germany) with speed of 1500 rpm.

[12] = Protein binding in human serum by size exclusion chromatography; type: in vitro ADME; conditions: 24 h incubation
Description: For protein binding assessment, the radiolabeled DOTA-peptides were incubated in fresh human serum at 37 °C (500 pmol/mL, n = 2). After 1, 4 and 24 h of incubation, two samples were taken for each time point and analyzed by Sephadex G-50 size-exclusion chromatography (GE Healthcare Illustra, Little Chalfont, UK). The percentage of protein binding was determined by measuring the column and the eluate with the gamma-counter.

[13] = Stability in fresh human serum (radio-HPLC); type: in vitro ADME; conditions: 24 h incubation, 37 °C
Description: In vitro stability studies for the characterization of the metabolic stability of the radiolabeled peptide analogs in human serum were carried out with [^177Lu]Lu-1, [^177Lu]Lu-M1, [^177Lu]Lu-M2, [^177Lu]Lu-M3 and [^177Lu]Lu-M4 (n = 2). Additional stability studies in rat liver and kidney homogenates were performed for [^177Lu]Lu-1 (n = 2). Tissue homogenates were prepared from dissected organs by homogenization for 1 min at RT (IKA-Werke, Staufen, Germany) in 20 mM HEPES buffer pH 7.3 (30% v/v). The radioligands were incubated in the different media at a concentration of 500 pmol/mL (corresponding to an activity of 6–11 MBq). After incubation at 37 °C at different time points for up to 24 h, a 100 µl sample was taken in duplicates and analyzed by HPLC. Samples obtained from human serum and rat homogenates were treated with ACN at a ratio of 1:1.5 (v/v) to precipitate proteins, centrifuged (14,000 rpm, 2 min, centrifuge 5424, Eppendorf AG, Germany) and diluted with water at a ratio of 1:1 (v/v). A 100 µl aliquot of this solution was injected into the radio HPLC system. The degradation of the radioligand was evaluated based on the radiochemical purity after radiolabeling and the percentage of intact radiopeptide observed during incubation in the different media.

[14] = design: method as in PMID 29896292; conditions: radiolabeled with different radiometals; cited from earlier work

DOTA-DGlu-Pro-Tyr-Gly-Trp-(N-Me)Nle-Asp-1Nal-NH2
cleaved bond [1]: 1Nal-NH2, minor and Asp-1Nal, minor and (N-Me)Nle-Asp, minor and Gly-Trp, minor
not cleaved [1]: M8 not found in any of the tissues examined
cleaved bond [2]: 1Nal-NH2 and Asp-1Nal and (N-Me)Nle-Asp and Gly-Trp and Tyr-Gly and Pro-Tyr, minor, 60 min
not cleaved [2]: M8 not found in any of the tissues examined
not cleaved [3]: 96.2 ± 1.3% intact peptide after 24 h incubation
cleaved bond [4]: 1Nal-NH2, minor and Asp-1Nal, major and (N-Me)Nle-Asp and Gly-Trp, major
not cleaved [4]: M8 not found in any of the tissues examined
cleaved bond [5]: 1Nal-NH2 and Asp-1Nal and (N-Me)Nle-Asp and Trp-(N-Me)Nle, minor and Gly-Trp and Tyr-Gly
not cleaved [5]: M8 not found in any of the tissues examined

DOTA-(DGlu)6-Ala-Tyr-Gly-Trp-Met-Asp-Phe-NH2 (AYGWMDF; DOTA-(D-Glu)6 N-terminus, C-amide; radiolabel; printed: Ala-Tyr-Gly-Trp-Met-Asp-Phe-) [PP-F11]
tumor uptake [6]: ~ 6.7 % IA/g

DOTA-(DGlu)6-Ala-Tyr-Gly-Trp-Nle-Asp-Phe-NH2 [PP-F11N]
tumor uptake [6]: 6.9 % IA/g

DOTA-DGlu-Ala-Tyr-Gly-Trp-Met-Asp-Phe-NH2 ({DOTA}-[dE]AYGWMDF-NH2; also: 111In complex) [DOTA-MG11, truncated MG analog, results quoted for the indium-111 labeled form]
time to complete degradation [7]: ≤ 10 min

DOTA-(DGlu)6-Ala-Tyr-Gly-Trp-Met-Asp-Phe-NH2
cleaved bond [8]: Asp-Phe

DOTA-(DGlu)6-Ala-Tyr-Gly-Trp-Nle-Asp-Phe-NH2
not cleaved [8]: seemed to be resistant against neprylisins

DOTA-DGlu-Pro-Tyr-Gly-Trp-(N-Me)Nle-Asp
not cleaved [3]: 98.1 ± 0.3% after 24 h incubation

{DOTA}-[dE]PYGW
not cleaved [3]: 98.4 ± 0.01% after 24 h incubation

{DOTA}-[dE]AYGWMDF-NH2
fragment found [9]: DOTA-DGlu-Ala-Tyr, 10 min after injection
cleaved bond [8]: Asp-Phe; also recorded: Gly-Trp

CCCC[C@@H](C(=O)N[C@@H](CC(=O)O)C(=O)N[C@@H](Cc1cccc2ccccc12)C(=O)O)N(C)C(=O)[C@H](Cc1c[nH]c2ccccc12)NC(=O)CNC(=O)[C@H](Cc1ccc(O)cc1)NC(=O)[C@@H]1CCCN1C(=O)[C@@H](CCC(=O)O)NC(=O)CN1CCN(CC(=O)O)CCN(CC(=O)O)CCN(CC(=O)O)CC1 [[^177Lu]Lu-M1, metal not drawn] ({DOTA}-[dE]PYGW[NMeNle]D[1Nal]-OH)
percentage of intact radiopeptide / radiometabolite ([10]; blood, 30 min p.i., mice injected i.v. with [177Lu]Lu-1): 9.9%
percentage of intact radiopeptide / radiometabolite ([10]; blood, 60 min p.i., mice injected i.v. with [177Lu]Lu-1): 5.8%
amount of radiometabolite ([10]; blood, different time points up to 1 h p.i.): < 10%
percentage of intact radiopeptide / radiometabolite ([10]; kidney, 30 min p.i.): 2.5%
percentage of intact radiopeptide / radiometabolite ([10]; liver, 30 min p.i.): 4.8%
percentage of intact radiopeptide / radiometabolite ([10]; liver, 60 min p.i.): 4.6%
percentage of intact radiopeptide / radiometabolite ([10]; urine, 30 min p.i.): 1.4%
logD [11]: -4.07 ± 0.35
fraction unbound [12]: 0.546
intact radiopeptide [13]: 89.1 ± 1.3%
intact radiopeptide ([13]; listed as radiolabeled M1): 89%

DOTA-DGlu-Ala-Tyr-Gly-Trp-(N-Me)Nle-Asp-1Nal-NH2 [DOTA-MGS5]
cell uptake [14]: > 50%
tumor-to-kidney ratio [6]: 4–6
